Measured values: ChEMBL document CHEMBL1157415, “Isolation, structure elucidation, and synthesis of cytotoxic tryptanthrin analogues from Phaius mishmensis” (J Nat Prod, 2008)

Tests used:
Format in all cases: functional, cell-based
MCF7 = assay: Cytotoxicity against human MCF7 cells
NCI-H460 = assay: Cytotoxicity against human NCI-H460 cells
SF-268 = assay: Cytotoxicity against human SF268 cells

| Compound | IC50 (MCF7; Homo sapiens, MCF7) [µM] | IC50 (NCI-H460; Homo sapiens, NCI-H460) [µM] | IC50 (SF-268; Homo sapiens, SF-268) [µM] | IC50 (MCF7; mcf7) [µM] | IC50 (NCI-H460; nci-h460) [µM] | IC50 (SF-268; sf-268) [µM] |
| --- | --- | --- | --- | --- | --- | --- |
| O=C(CC1(O)c2ccccc2-n2c1nc1ccccc1c2=O)c1ccccc1 (centres undefined) | > 50 | > 50 | > 50 | – | – | – |
| CCCCCCCCC(=O)CC1(O)c2ccccc2-n2c1nc1ccccc1c2=O (centres undefined) | 40.5 | 42.8 | > 50 | – | – | – |
| CCC(=O)C(C)C1(O)c2ccccc2-n2c1nc1ccccc1c2=O (centres undefined) | 15.8 | 13.9 | 24.8 | – | – | – |
| COC(=O)CC1(O)c2ccccc2-n2c1nc1ccccc1c2=O (centres undefined) [PHAITANTHRINS B] | > 50 | > 50 | > 50 | – | – | – |
| COC(=O)C1(O)c2ccccc2N=C2C(=O)c3ccccc3N21 (centres undefined) [METHYLISATOID] | > 50 | > 50 | > 50 | – | – | – |
| O=C1OC[C@@]23Nc4ccccc4C(=O)N2c2ccccc2[C@@H]13 [PHAITANTHRIN D] | > 50 | > 50 | > 50 | – | – | – |
| O=C1c2ccccc2-n2c1nc1ccccc1c2=O [TRYPTANTHRIN] | 11.1 | 9 | 24.4 | – | – | – |
| O=C1/C(=c2\c3ccccc3n3c(=O)c4ccccc4nc23)Nc2ccccc21 [CANDIDINE] | > 50 | > 50 | > 50 | – | – | – |
| O=C1CCCC1C1(O)c2ccccc2-n2c1nc1ccccc1c2=O (stereo in doubt; 11) | – | – | – | 19.7 | 19.1 | 34.8 |
| O=C1c2c(O)cccc2-n2c1nc1ccccc1c2=O [PHAITANTHRIN C] | > 50 | > 50 | > 50 | – | – | – |
| COC(=O)c1c2ccccc2n2c(=O)c3ccccc3[nH]c12 [PHAITANTHRIN E] | > 50 | > 50 | > 50 | – | – | – |
| CC(=O)CC1(O)c2ccccc2-n2c1nc1ccccc1c2=O (centres undefined) [PHAITANTHRINS A] | 28.2 | 31.4 | 45.4 | – | – | – |
| O=C1CCCC1C1(O)c2ccccc2-n2c1nc1ccccc1c2=O (stereo in doubt; 12) | 20.7 | 20.6 | 33.9 | – | – | – |
